In the supplement of paper PMC5662764:
± gives the standard deviation of the averaged measurements.

What was measured:
Assay in all cases: normalised growth rate inhibition (GR value) relative to DMSO control (GR (1 = untreated growth, 0 = cytostasis, <0 = cytotoxic)); higher = less growth inhibition
Conditions in all cases: 72 h
MCF7 = system: MCF7
Description: (§1)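 Breast cancer cell lines (BT-20, Hs 578T, MCF 10A, MCF7, MDA-MB-231, SK-BR-3) were plated in 384-well plates and treated 24 h later with drugs at six concentrations (0.04-10 µM). Viable cells were counted by Hoechst/dead-cell-stain imaging at 0 and 72 h. Counts were normalised to DMSO controls on the same plate to give the relative cell count and the growth-rate inhibition (GR) value; technical plate triplicates were averaged for each biological replicate.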

MDAMB231 = system: MDAMB231
Description: as §1

HS578T = system: HS578T
Description: as §1

SKBR3 = system: SKBR3
Description: as §1

BT20 = system: BT20
Description: as §1

MCF10A = system: MCF10A
Description: as §1

COc1cc2c(Oc3ccc(NC(=O)C4(C(=O)Nc5ccc(F)cc5)CC4)cc3F)ccnc2cc1OCCCN1CCOCC1 [foretinib]
normalised growth rate inhibition (MCF7; 0.04 µM): 1.01 ± 0.025 | normalised growth rate inhibition (MCF7; 0.12 µM): 0.495 ± 0.2 | normalised growth rate inhibition (MCF7; 0.37 µM): 0.134 ± 0.019 | normalised growth rate inhibition (MCF7; 1.11 µM): 0.0492 ± 0.039 | normalised growth rate inhibition (MCF7; 3.33 µM): 0.00497 ± 0.016 | normalised growth rate inhibition (MCF7; 10 µM): -0.225 ± 0.025 | normalised growth rate inhibition (MDAMB231; 0.04 µM): 0.91 ± 0.037 | normalised growth rate inhibition (MDAMB231; 0.12 µM): 0.615 ± 0.012 | normalised growth rate inhibition (MDAMB231; 0.37 µM): 0.168 ± 0.12 | normalised growth rate inhibition (MDAMB231; 1.11 µM): 0.113 ± 0.12 | normalised growth rate inhibition (MDAMB231; 3.33 µM): 0.0741 ± 0.17 | normalised growth rate inhibition (MDAMB231; 10 µM): -0.211 ± 0.056 | normalised growth rate inhibition (HS578T; 0.04 µM): 0.936 ± 0.045 | normalised growth rate inhibition (HS578T; 0.12 µM): 0.845 ± 0.011 | normalised growth rate inhibition (HS578T; 0.37 µM): 0.381 ± 0.15 | normalised growth rate inhibition (HS578T; 1.11 µM): 0.256 ± 0.14 | normalised growth rate inhibition (HS578T; 3.33 µM): 0.178 ± 0.14 | normalised growth rate inhibition (HS578T; 10 µM): -0.223 ± 0.12 | normalised growth rate inhibition (SKBR3; 0.04 µM): 1.07 ± 0.037 | normalised growth rate inhibition (SKBR3; 0.12 µM): 0.812 ± 0.26 | normalised growth rate inhibition (SKBR3; 0.37 µM): 0.0769 ± 0.069 | normalised growth rate inhibition (SKBR3; 1.11 µM): -0.0562 ± 0.079 | normalised growth rate inhibition (SKBR3; 3.33 µM): -0.034 ± 0.083 | normalised growth rate inhibition (SKBR3; 10 µM): -0.0967 ± 0.11 | normalised growth rate inhibition (BT20; 0.04 µM): 1.02 ± 0.046 | normalised growth rate inhibition (BT20; 0.12 µM): 0.799 ± 0.15 | normalised growth rate inhibition (BT20; 0.37 µM): 0.236 ± 0.22 | normalised growth rate inhibition (BT20; 1.11 µM): -0.00958 ± 0.12 | normalised growth rate inhibition (BT20; 3.33 µM): -0.0192 ± 0.12 | normalised growth rate inhibition (BT20; 10 µM): -0.124 ± 0.12 | normalised growth rate inhibition (MCF10A; 0.04 µM): 1.03 ± 0.031 | normalised growth rate inhibition (MCF10A; 0.12 µM): 0.992 ± 0.028 | normalised growth rate inhibition (MCF10A; 0.37 µM): 0.902 ± 0.034 | normalised growth rate inhibition (MCF10A; 1.11 µM): 0.429 ± 0.1 | normalised growth rate inhibition (MCF10A; 3.33 µM): 0.154 ± 0.043 | normalised growth rate inhibition (MCF10A; 10 µM): -0.0329 ± 0.028

CC[C@@H]1C(=O)N(C)c2cnc(Nc3ccc(C(=O)NC4CCN(C)CC4)cc3OC)nc2N1C1CCCC1 [BI-2536]
normalised growth rate inhibition (MCF7; 0.04 µM): 0.101 ± 0.044 | normalised growth rate inhibition (MCF7; 0.12 µM): 0.0593 ± 0.017 | normalised growth rate inhibition (MCF7; 0.37 µM): 0.0551 ± 0.044 | normalised growth rate inhibition (MCF7; 1.11 µM): 0.0492 ± 0.066 | normalised growth rate inhibition (MCF7; 3.33 µM): 0.0223 ± 0.047 | normalised growth rate inhibition (MCF7; 10 µM): -0.191 ± 0.038 | normalised growth rate inhibition (MDAMB231; 0.04 µM): 0.0155 ± 0.14 | normalised growth rate inhibition (MDAMB231; 0.12 µM): 0.00874 ± 0.1 | normalised growth rate inhibition (MDAMB231; 0.37 µM): 0.00566 ± 0.14 | normalised growth rate inhibition (MDAMB231; 1.11 µM): 0.0242 ± 0.14 | normalised growth rate inhibition (MDAMB231; 3.33 µM): 0.0274 ± 0.12 | normalised growth rate inhibition (MDAMB231; 10 µM): -0.0537 ± 0.25 | normalised growth rate inhibition (HS578T; 0.04 µM): -0.128 ± 0.11 | normalised growth rate inhibition (HS578T; 0.12 µM): -0.125 ± 0.14 | normalised growth rate inhibition (HS578T; 0.37 µM): -0.0972 ± 0.11 | normalised growth rate inhibition (HS578T; 1.11 µM): -0.0687 ± 0.11 | normalised growth rate inhibition (HS578T; 3.33 µM): -0.0582 ± 0.1 | normalised growth rate inhibition (HS578T; 10 µM): -0.125 ± 0.16 | normalised growth rate inhibition (SKBR3; 0.04 µM): -0.136 ± 0.22 | normalised growth rate inhibition (SKBR3; 0.12 µM): -0.151 ± 0.18 | normalised growth rate inhibition (SKBR3; 0.37 µM): -0.109 ± 0.23 | normalised growth rate inhibition (SKBR3; 1.11 µM): -0.15 ± 0.23 | normalised growth rate inhibition (SKBR3; 3.33 µM): -0.158 ± 0.2 | normalised growth rate inhibition (SKBR3; 10 µM): -0.208 ± 0.25 | normalised growth rate inhibition (BT20; 0.04 µM): -0.177 ± 0.15 | normalised growth rate inhibition (BT20; 0.12 µM): -0.203 ± 0.19 | normalised growth rate inhibition (BT20; 0.37 µM): -0.198 ± 0.17 | normalised growth rate inhibition (BT20; 1.11 µM): -0.163 ± 0.16 | normalised growth rate inhibition (BT20; 3.33 µM): -0.143 ± 0.14 | normalised growth rate inhibition (BT20; 10 µM): -0.137 ± 0.17 | normalised growth rate inhibition (MCF10A; 0.04 µM): -0.0473 ± 0.13 | normalised growth rate inhibition (MCF10A; 0.12 µM): -0.0192 ± 0.14 | normalised growth rate inhibition (MCF10A; 0.37 µM): 0.00696 ± 0.13 | normalised growth rate inhibition (MCF10A; 1.11 µM): 1.1e-05 ± 0.11 | normalised growth rate inhibition (MCF10A; 3.33 µM): -0.0132 ± 0.098 | normalised growth rate inhibition (MCF10A; 10 µM): 0.00366 ± 0.082

CNC(=O)c1cc(Oc2ccc(NC(=O)Nc3ccc(Cl)c(C(F)(F)F)c3)cc2)ccn1 [sorafenib]
normalised growth rate inhibition (MCF7; 0.04 µM): 0.946 ± 0.023 | normalised growth rate inhibition (MCF7; 0.12 µM): 0.91 ± 0.057 | normalised growth rate inhibition (MCF7; 0.37 µM): 0.936 ± 0.028 | normalised growth rate inhibition (MCF7; 1.11 µM): 0.906 ± 0.072 | normalised growth rate inhibition (MCF7; 3.33 µM): 0.852 ± 0.089 | normalised growth rate inhibition (MCF7; 10 µM): 0.247 ± 0.12 | normalised growth rate inhibition (MDAMB231; 0.04 µM): 1.01 ± 0.045 | normalised growth rate inhibition (MDAMB231; 0.12 µM): 0.917 ± 0.13 | normalised growth rate inhibition (MDAMB231; 0.37 µM): 0.927 ± 0.11 | normalised growth rate inhibition (MDAMB231; 1.11 µM): 0.938 ± 0.18 | normalised growth rate inhibition (MDAMB231; 3.33 µM): 0.918 ± 0.13 | normalised growth rate inhibition (MDAMB231; 10 µM): 0.801 ± 0.12 | normalised growth rate inhibition (HS578T; 0.04 µM): 1.13 ± 0.076 | normalised growth rate inhibition (HS578T; 0.12 µM): 1.14 ± 0.061 | normalised growth rate inhibition (HS578T; 0.37 µM): 1.16 ± 0.098 | normalised growth rate inhibition (HS578T; 1.11 µM): 1.18 ± 0.12 | normalised growth rate inhibition (HS578T; 3.33 µM): 1.15 ± 0.11 | normalised growth rate inhibition (HS578T; 10 µM): 0.874 ± 0.093 | normalised growth rate inhibition (SKBR3; 0.04 µM): 0.908 ± 0.048 | normalised growth rate inhibition (SKBR3; 0.12 µM): 0.954 ± 0.093 | normalised growth rate inhibition (SKBR3; 0.37 µM): 0.993 ± 0.07 | normalised growth rate inhibition (SKBR3; 1.11 µM): 1.03 ± 0.074 | normalised growth rate inhibition (SKBR3; 3.33 µM): 1.04 ± 0.084 | normalised growth rate inhibition (SKBR3; 10 µM): 0.212 ± 0.27 | normalised growth rate inhibition (BT20; 0.04 µM): 0.936 ± 0.017 | normalised growth rate inhibition (BT20; 0.12 µM): 0.931 ± 0.023 | normalised growth rate inhibition (BT20; 0.37 µM): 0.855 ± 0.052 | normalised growth rate inhibition (BT20; 1.11 µM): 0.849 ± 0.036 | normalised growth rate inhibition (BT20; 3.33 µM): 0.836 ± 0.026 | normalised growth rate inhibition (BT20; 10 µM): 0.429 ± 0.35 | normalised growth rate inhibition (MCF10A; 0.04 µM): 1.02 ± 0.046 | normalised growth rate inhibition (MCF10A; 0.12 µM): 0.993 ± 0.048 | normalised growth rate inhibition (MCF10A; 0.37 µM): 0.978 ± 0.047 | normalised growth rate inhibition (MCF10A; 1.11 µM): 0.97 ± 0.034 | normalised growth rate inhibition (MCF10A; 3.33 µM): 0.95 ± 0.038 | normalised growth rate inhibition (MCF10A; 10 µM): 0.65 ± 0.1

FC(F)c1nc2ccccc2n1-c1nc(N2CCOCC2)nc(N2CCOCC2)n1 [ZSTK-474]
normalised growth rate inhibition (MCF7; 0.04 µM): 0.664 ± 0.2 | normalised growth rate inhibition (MCF7; 0.12 µM): 0.37 ± 0.18 | normalised growth rate inhibition (MCF7; 0.37 µM): 0.138 ± 0.048 | normalised growth rate inhibition (MCF7; 1.11 µM): 0.0423 ± 0.065 | normalised growth rate inhibition (MCF7; 3.33 µM): 0.00162 ± 0.071 | normalised growth rate inhibition (MCF7; 10 µM): -0.0168 ± 0.11 | normalised growth rate inhibition (MDAMB231; 0.04 µM): 0.881 ± 0.062 | normalised growth rate inhibition (MDAMB231; 0.12 µM): 0.828 ± 0.055 | normalised growth rate inhibition (MDAMB231; 0.37 µM): 0.728 ± 0.025 | normalised growth rate inhibition (MDAMB231; 1.11 µM): 0.646 ± 0.061 | normalised growth rate inhibition (MDAMB231; 3.33 µM): 0.511 ± 0.077 | normalised growth rate inhibition (MDAMB231; 10 µM): 0.386 ± 0.11 | normalised growth rate inhibition (HS578T; 0.04 µM): 0.806 ± 0.017 | normalised growth rate inhibition (HS578T; 0.12 µM): 0.663 ± 0.032 | normalised growth rate inhibition (HS578T; 0.37 µM): 0.522 ± 0.088 | normalised growth rate inhibition (HS578T; 1.11 µM): 0.394 ± 0.12 | normalised growth rate inhibition (HS578T; 3.33 µM): 0.289 ± 0.1 | normalised growth rate inhibition (HS578T; 10 µM): 0.148 ± 0.11 | normalised growth rate inhibition (SKBR3; 0.04 µM): 0.783 ± 0.087 | normalised growth rate inhibition (SKBR3; 0.12 µM): 0.46 ± 0.06 | normalised growth rate inhibition (SKBR3; 0.37 µM): 0.161 ± 0.1 | normalised growth rate inhibition (SKBR3; 1.11 µM): 0.0252 ± 0.12 | normalised growth rate inhibition (SKBR3; 3.33 µM): -0.0251 ± 0.15 | normalised growth rate inhibition (SKBR3; 10 µM): -0.031 ± 0.13 | normalised growth rate inhibition (BT20; 0.04 µM): 0.971 ± 0.029 | normalised growth rate inhibition (BT20; 0.12 µM): 0.855 ± 0.16 | normalised growth rate inhibition (BT20; 0.37 µM): 0.615 ± 0.27 | normalised growth rate inhibition (BT20; 1.11 µM): 0.211 ± 0.17 | normalised growth rate inhibition (BT20; 3.33 µM): 0.0764 ± 0.14 | normalised growth rate inhibition (BT20; 10 µM): -0.0662 ± 0.025 | normalised growth rate inhibition (MCF10A; 0.04 µM): 0.954 ± 0.065 | normalised growth rate inhibition (MCF10A; 0.12 µM): 0.842 ± 0.12 | normalised growth rate inhibition (MCF10A; 0.37 µM): 0.698 ± 0.16 | normalised growth rate inhibition (MCF10A; 1.11 µM): 0.472 ± 0.083 | normalised growth rate inhibition (MCF10A; 3.33 µM): 0.296 ± 0.049 | normalised growth rate inhibition (MCF10A; 10 µM): 0.179 ± 0.069
